# Source: patent US20160024083A1, “COMPOUNDS AND METHODS FOR TREATING CANCERS” (HEALTH RESEARCH, INC., priority 2013, published 2016)
# How the values were obtained:
# [1] = Tissue drug concentrations (tumor, liver, plasma) in treated CWR22R tumor-bearing mice; format: in vivo
# Protocol: (§1) We tested these compounds in an in vivo efficacy experiment using model of CRPC in SCID mice, CWR22R. Two compounds, PLA1079 and 1125, which were synthesized in the amount of 500 mg were tested in full scale experiment with either 5 IV daily injections or 10 IP daily injections. After 5 IP or IV injections intra-tumor concentration of the compounds were measured in few mice from this experiment.
# Two other compounds, PLA1148 and 1098 (PK testing in FIGS. 8 and 9) were tested in a small scale efficacy experiment. Upon PK testing of the compound PLA1148 one mouse was injected twice with 10 min interval. However the concentration of the drug in plasma of this mouse was not twice, but >4 times higher than in mice injected once. […] It was decided to utilize this observation in an attempt to get higher plasma and tumor concentration of both compounds. Therefore in the pilot efficacy experiment in the same model of CWR22R cells mice were treated with 2 IP injections with 10 minute interval. Treatment with PLA1098 was carried out for two days. […] However this is so far the highest concentration found in tumor. […]
# (§2) LC50 data of in vitro 72 hours cytotoxicity assay are included in this table for comparison.
# [2] = tested on: CWR22R tumors; assay: In vivo efficacy, subcutaneous xenografts of CWR22R cells in SCID mice
# Protocol: as §1
# (§3) Two other compounds, PLA1148 and 1098 (PK testing in FIGS. 8 and 9) were tested in a small scale efficacy experiment. Upon PK testing of the compound PLA1148 one mouse was injected twice with 10 min interval. However the concentration of the drug in plasma of this mouse was not twice, but >4 times higher than in mice injected once. […] It was decided to utilize this observation in an attempt to get higher plasma and tumor concentration of both compounds. Therefore in the pilot efficacy experiment in the same model of CWR22R cells mice were treated with 2 IP injections with 10 minute interval. Treatment with PLA1098 was carried out for two days. […] However this is so far the highest concentration found in tumor.
# Pilot efficacy experiments were run for compounds: PLA1163, PLA1148 using the same model of subcutaneous xenografts of CWR22R cells in SCID mice (FIGS. 18 and 19).
# [3] = Toxicity / side effects in treated mice; format: in vivo
# Protocol: as §3
# This compound may be also potentially promising.
# [4] = Plasma concentration (PK) after intravenous and intraperitoneal injections; format: in vivo; details: 50-100 mg/kg
# [5] = tested on: presumable target protein; assay: DARTS (Drug Affinity Responsive Target Stability) assay in CWR22r lysates; format: binding; details: protein lysates from CWR22r cells
# Protocol: FIG. 24. DARTS (Drug Affinity Responsive Target Stability) assay was performed using c52 and PLA1118. According to this assay these compounds are capable of protecting presumable target protein from protease degradation. Protein lysates from sensitive CWR22r cells were incubated with or without the drug and subsequently digested with the indicated concentration of pronase. A. c52 was used (lane T-treated, M-marker) with indicated concentrations of pronase; ability of c52 to protect its target from protease cleavage was judged based on presence of protein band in the treated lane vs the untreated (UT) control.
# Target identification through affinity chromatography and sensitivity to proteolysis methods was undertaken. […] These bands were excised from gel and sent for protein sequencing. (FIG. 24).
# [6] = tested on: CWR22R; assay: cells; format: cell-based
# Protocol: FIG. 21. Toxicity of PLA1055 to CWR22R cells in vitro depending on time of incubation. PLA1055 was added to CWR22R in full range of concentrations for the periods of time shown on the right. After that drug containing media were changed for drug free and survival of cells was detected at 72 hours after start of treatment using Alamar Blue assay (Promega).
# (§4) This example provides a table (below) of the compounds of the present disclosure and their activity towards four different cell lines (i.e., CWR22R, HeLa, PC3, and MDA-MB-231). The IC50 for inhibition of growth is divided into 4 categories: A<1 μM, B 1-5 μM, C 5-20 μM, D>20 μM.
# (§5) All compounds were tested for toxicity using 4 cells lines, target cells—CWR22R and non-target cells, Hela, PC3 and MDA-MB-231 (FIGS. 1A-F).
# as §2
# An in vitro experiment was run to detect the concentration of PLA1055 needed to kill all tumor cells in vitro (LC90) during different periods of time (30 minutes-72 hours, FIG. 21)).
# [7] = tested on: HCC1419; assay: Sensitivity to growth inhibition, HCC1419; format: cell-based; details: Luminal breast carcinoma, AR+
# [8] = tested on: LNCaP; assay: Sensitivity to growth inhibition, LNCaP; format: cell-based; details: castration resistant prostate cancer, AR+
# [9] = tested on: HMEC; assay: Sensitivity to growth inhibition, HMEC; format: cell-based; details: normal breast
# [10] = tested on: ZR751; assay: Sensitivity to growth inhibition, ZR751; format: cell-based; details: Luminal breast carcinoma, AR+
# [11] = tested on: MRC5; assay: Sensitivity to growth inhibition, MRC5; format: cell-based; details: normal fibroblasts, AR−
# [12] = tested on: UACC893; assay: Sensitivity to growth inhibition, UACC893; format: cell-based; details: Luminal breast carcinoma, AR+
# [13] = tested on: T47D; assay: Sensitivity to growth inhibition, T47D; format: cell-based; details: Luminal breast carcinoma, AR+
# [14] = tested on: MCF7; assay: Sensitivity to growth inhibition, MCF7; format: cell-based; details: Luminal breast carcinoma, AR+
# [15] = tested on: NKE; assay: Sensitivity to growth inhibition, NKE; format: cell-based; details: normal kidney, AR−
# [16] = tested on: MCF10A; assay: Sensitivity to growth inhibition, MCF10A; format: cell-based; details: mammary gland epithelium
# [17] = tested on: MDAMB453; assay: Sensitivity to growth inhibition, MDAMB453; format: cell-based; details: Luminal breast carcinoma, AR+
# [18] = tested on: CAMA1; assay: Sensitivity to growth inhibition, CAMA1; format: cell-based; details: Luminal breast carcinoma, AR+
# [19] = tested on: BT474; assay: Sensitivity to growth inhibition, BT474; format: cell-based; details: Luminal breast carcinoma, AR+
# [20] = tested on: Hep3B; assay: Sensitivity to growth inhibition, Hep3B; format: cell-based; details: hepatocellular carcinoma, AR +
# [21] = tested on: ZR7530; assay: Sensitivity to growth inhibition, ZR7530; format: cell-based; details: Luminal breast carcinoma, AR+
# [22] = tested on: HepG2; assay: Sensitivity to growth inhibition, HepG2; format: cell-based; details: hepatocellular carcinoma, AR +
# [23] = tested on: ACHN; assay: Sensitivity to growth inhibition, ACHN; format: cell-based; details: renal cell carcinoma, AR−
# [24] = tested on: Du145; assay: Sensitivity to growth inhibition, Du145; format: cell-based; details: castration resistant prostate cancer, AR−
# [25] = tested on: MiaPaca; assay: Sensitivity to growth inhibition, MiaPaca; format: cell-based; details: pancreatic adenocarcinoma, AR−
# [26] = tested on: HCC202; assay: Sensitivity to growth inhibition, HCC202; format: cell-based; details: Luminal breast carcinoma, AR−
# [27] = tested on: PPC1; assay: Sensitivity to growth inhibition, PPC1; format: cell-based; details: castration resistant prostate cancer, AR−
# [28] = tested on: SKRC45; assay: Sensitivity to growth inhibition, SKRC45; format: cell-based; details: renal cell carcinoma, AR−
# [29] = tested on: AU565; assay: Sensitivity to growth inhibition, AU565; format: cell-based; details: Luminal breast carcinoma, AR+
# [30] = tested on: VCaP; assay: Sensitivity to growth inhibition, VCaP; format: cell-based; details: castration resistant prostate cancer, Armut
# [31] = tested on: C4-2; assay: Sensitivity to growth inhibition, C4-2; format: cell-based; details: castration resistant prostate cancer, AR+
# [32] = tested on: SUM185PE; assay: Sensitivity to growth inhibition, SUM185PE; format: cell-based; details: Luminal breast carcinoma, AR+
# [33] = tested on: normal hepatocytes; assay: Sensitivity to growth inhibition, normal hepatocytes; format: cell-based
# [34] = tested on: RCC45; assay: Sensitivity to growth inhibition, RCC45; format: cell-based; details: renal cell carcinoma, AR−
# [35] = tested on: PC3; assay: Inhibition of growth / toxicity in non-target PC3 cells; format: cell-based; details: castration resistant prostate cancer, AR−
# Protocol: as §4, §5
# [36] = tested on: EFM192A; assay: Sensitivity to growth inhibition, EFM192A; format: cell-based; details: Luminal breast carcinoma, AR−
# [37] = tested on: MDAMB415; assay: Sensitivity to growth inhibition, MDAMB415; format: cell-based; details: Luminal breast carcinoma, AR+
# [38] = tested on: HT1080; assay: Sensitivity to growth inhibition, HT1080; format: cell-based; details: fibrosarcoma AR−
# [39] = tested on: MDA-MB-231; assay: Inhibition of growth / toxicity in non-target MDA-MB-231 cells; format: cell-based; details: Homo sapiens
# Protocol: as §4, §5
# [40] = tested on: PANC1; assay: Sensitivity to growth inhibition, PANC1; format: cell-based; details: pancreatic adenocarcinoma, AR−
# [41] = tested on: Hela; assay: Inhibition of growth / toxicity in non-target Hela cells; format: cell-based
# Protocol: as §4, §5
smiles,measurement,setting,value
CCCn1c2ccccc2c2c3c(ccc21)C(=O)N(C)C3 [PLA1098],Liver,"[1]; 100 mg/kg, IP",0 nM
same,Tumor concentration,"[1]; 100 mg/kg, IP",23 to 25 nM
same,Intratumor concentration,"[1]; 2 tested tumors, 24 hours after last injection",25 nM
same,compound in liver,[1]; 24 hours after last injection,no detectable
same,compound in plasma,[1]; 24 hours after last injection,no detectable
same,tumor volume and tumor weight vs vehicle control,"[2]; CWR22R, 2 IP injections with 10 minute interval for two days, 12 days after treatment","certain reduction of tumor volume and tumor weigh in the 1098 treated group vs vehicle control, but not statistically significant"
same,in vivo efficacy,[2]; summary statement,evidence of in vivo efficacy
same,side effects during treatment,"[3]; 2 IP injections with 10 minute interval, two days",no signs of side effects
same,signs of toxicity,[3]; summary statement,without any signs of toxicity
same,plasma concentration time course,[4]; after IV and IP injections,fast reduction of concentration during the first hour
same,bioavailability through IP injection,[4]; plasma concentrations similar or even higher after IP than IV,very high
same,protection of target protein from pronase degradation,[5],protected their targets from degradation
same,CC50,[6],40 nM
"CCCn1c2ccccc2c2cc(C(C)=O)ccc21 [Compound 1-3, 1-(9-propyl-9H-carbazol-3-yl)ethanone]",Compound 1-3 sensitivity,[7],R
same,Compound 1-3 sensitivity,[8],S
same,Compound 1-3 sensitivity,[9],R
same,Compound 1-3 sensitivity,[10],S
same,Compound 1-3 sensitivity,[11],R
same,Compound 1-3 sensitivity,[12],R
same,Compound 1-3 sensitivity,[13],S
same,Compound 1-3 sensitivity,[14],S
same,Compound 1-3 sensitivity,[15],R
same,Compound 1-3 sensitivity,[16],R
same,Compound 1-3 sensitivity,[17],S
same,Compound 1-3 sensitivity,[18],R
same,Compound 1-3 sensitivity,[19],S
same,Compound 1-3 sensitivity,[20],S
same,Compound 1-3 sensitivity,[21],S
same,Compound 1-3 sensitivity,[22],S
same,Compound 1-3 sensitivity,[23],R
same,Compound 1-3 sensitivity,[24],R
same,Compound 1-3 sensitivity,[25],R
same,Compound 1-3 sensitivity,[26],S
same,Compound 1-3 sensitivity,[27],R
same,Compound 1-3 sensitivity,[28],R
same,Compound 1-3 sensitivity,[29],S
same,Compound 1-3 sensitivity,[30],R
same,Compound 1-3 sensitivity,[31],S
same,Compound 1-3 sensitivity,[32],S
same,Compound 1-3 sensitivity,[33],R
same,Compound 1-3 sensitivity,[34],R
same,Compound 1-3 sensitivity,[35],R
same,Compound 1-3 sensitivity,[36],S
same,Compound 1-3 sensitivity,[37],S
same,Compound 1-3 sensitivity,[38],R
same,IC50,[39],> 20000 nM
same,Compound 1-3 sensitivity,[40],R
same,Compound 1-3 sensitivity,"[6]; CWR22R, castration resistant prostate cancer, AR+",S
same,IC50,"[6]; Homo sapiens, 22Rv1, CWR22R, read-out: IC50 for inhibition of growth",< 1000 nM
same,Compound 1-3 sensitivity,"[41]; Hela, cervix adenocarcinoma, AR−",R
same,IC50,"[41]; Homo sapiens, HeLa",> 20000 nM
